Test results: article PMC8289695 (Cell Reports, 2021)
Like-named read-outs stand apart in the source and are kept apart here.

How the values were obtained:
SARS-CoV-2 [1] = assay type: cell-based, strain USA_WA1/2020
SARS-CoV-2 [2] = assay: microbe, parasite or virus in culture; assay type: cell-based, strain USA_WA1/2020; conditions: Severe acute respiratory syndrome coronavirus 2, Calu-3, read-out: IC50, infectious virus production (plaque assay)
VPS34 = VPS34 (Homo sapiens, UniProt Q8NEB9); assay type: cell-based; conditions: Huh7 cells, 24 h treatment; VPS34-IN1 2 μM, PIK-III 5 μM, SAR405 5 μM, Compound 19 5 μM, Orlistat 200 μM
SARS-CoV-2 [3] = assay type: cell-based, strain USA_WA1/2020; conditions: VPS34-IN1 5 μM, orlistat 500 μM, triacsin C 5 μM, TOFA 50 μM, 2-bromopalmitate 50 μM, A922500 30 μM, remdesivir 1 μM
SARS-CoV-2 [4] = assay type: cell-based, strain USA_WA1/2020; remark: listed apart in the source
SARS-CoV-2 [5] = assay: microbe, parasite or virus in culture; assay type: cell-based, strain USA_WA1/2020
Vero E6 cells = conditions: concentrations below 16.67 μM of 10-point dose response
[6] = read-out: IC50, infectious virus production (focus forming assay)

VPS34, sequence (Q8NEB9 whole entry): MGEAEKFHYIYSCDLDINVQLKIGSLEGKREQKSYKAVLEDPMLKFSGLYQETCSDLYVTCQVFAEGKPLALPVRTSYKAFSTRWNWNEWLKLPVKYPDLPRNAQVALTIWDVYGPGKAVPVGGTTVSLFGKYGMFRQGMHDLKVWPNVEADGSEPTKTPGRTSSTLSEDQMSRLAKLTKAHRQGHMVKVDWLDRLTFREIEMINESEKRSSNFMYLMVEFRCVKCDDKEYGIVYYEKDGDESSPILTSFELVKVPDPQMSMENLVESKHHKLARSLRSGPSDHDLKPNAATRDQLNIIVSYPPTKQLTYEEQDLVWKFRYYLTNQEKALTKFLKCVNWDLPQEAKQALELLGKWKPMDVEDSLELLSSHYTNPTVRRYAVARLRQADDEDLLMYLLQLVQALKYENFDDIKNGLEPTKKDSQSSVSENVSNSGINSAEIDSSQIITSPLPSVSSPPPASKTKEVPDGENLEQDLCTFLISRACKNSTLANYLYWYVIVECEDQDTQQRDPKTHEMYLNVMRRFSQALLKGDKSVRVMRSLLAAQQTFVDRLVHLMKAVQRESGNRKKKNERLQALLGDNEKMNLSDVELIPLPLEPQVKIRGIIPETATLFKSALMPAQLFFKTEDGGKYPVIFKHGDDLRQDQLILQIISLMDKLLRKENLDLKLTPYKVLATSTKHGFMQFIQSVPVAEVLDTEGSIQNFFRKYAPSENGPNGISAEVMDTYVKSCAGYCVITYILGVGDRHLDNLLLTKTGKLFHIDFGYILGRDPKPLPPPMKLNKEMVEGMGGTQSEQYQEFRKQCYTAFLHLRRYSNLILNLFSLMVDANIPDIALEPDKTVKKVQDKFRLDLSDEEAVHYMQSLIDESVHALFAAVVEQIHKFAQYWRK

Row | SMILES | IC50 (SARS-CoV-2 [2]) | dsRNA and SARS-CoV-2 N distribution (replication centers) (SARS-CoV-2 [3]) | viral RNA levels (SARS-CoV-2 [4]) | IC50 (SARS-CoV-2 [5]; [6]) | other results
1 | CCCCCCCCCCC[C@@H](C[C@@H]1OC(=O)[C@H]1CCCCCC)OC(=O)[C@H](CC(C)C)NC=O [orlistat] | 21.2 µM | loss of these distinct puncta and dispersion of dsRNA and SARS-CoV-2 N | reduced RNA levels at both MOI 0.01 and 1 |  | inhibition of viral cytopathic effects at highest concentration (SARS-CoV-2 [1]): complete inhibition was not achieved; effect on GFP-2xFYVE localization to endosomes (puncta) (VPS34): did not affect GFP-2xFYVE localization
2 | C[C@@H]1COCCN1c1cc(=O)n2c(n1)N(Cc1cncc(Cl)c1)[C@H](C(F)(F)F)CC2 [SAR405] |  |  |  |  | IC50 (SARS-CoV-2 [5]; Severe acute respiratory syndrome coronavirus 2, Calu-3, read-out: IC50, infectious virus production (focus forming assay)): 0.376 µM
3 | CCOC(=O)[C@@]1(CCCCCCOc2ccc(Cl)cc2)CO1 [etomoxir] |  |  |  |  | inhibition of SARS-CoV-2 (focus forming assay) (SARS-CoV-2 [5]): Neither compound showed any inhibition
4 | CC(C)(O)CNc1ncc(-c2ccnc(Nc3ccnc(Cl)c3)n2)c(CC2CC2)n1 [VPS34-IN1] | 0.55 µM | loss of these distinct puncta and dispersion of dsRNA and SARS-CoV-2 N | reduced RNA levels at both MOI 0.01 and 1 |  | toxicity at the remaining concentrations (resistance 1-20 hpi) (Vero E6 cells): no toxicity was observed
5 | CCC(CC)COC(=O)[C@H](C)N[P@](=O)(OC[C@H]1O[C@@](C#N)(c2ccc3c(N)ncnn23)[C@H](O)[C@@H]1O)Oc1ccccc1 [remdesivir] |  | distribution of N and dsRNA similar to the DMSO control |  |  | RNA synthesis at earlier time points (4 and 10 hpi) (SARS-CoV-2 [4]): inhibited RNA synthesis at earlier time points as well
6 | COc1ccc(CN2CCNCC2)c(OC)c1OC [trimetazidine] |  |  |  |  | inhibition of SARS-CoV-2 (focus forming assay) (SARS-CoV-2 [5]): Neither compound showed any inhibition
7 | C=C1C(=O)OC(CCCCCCCC)C1C(=O)O (stereo not shown) [C75] |  |  |  | 22.8 µM | 
8 | CCCCCCCCCCCCCCC(Br)C(=O)O (stereo not shown) [2-bromopalmitate] |  | fewer but larger foci positive for both markers | reduced RNA levels at both MOI 0.01 and 1 | 23 µM | concentrations at which infectious virus production was inhibited (SARS-CoV-2 [5]): greater than 10 μM
9 | O=C(Nc1ccccc1)Nc1ccc(-c2ccc(C(=O)[C@@H]3CCC[C@H]3C(=O)O)cc2)cc1 [A922500] |  | loss of these distinct puncta and dispersion of dsRNA and SARS-CoV-2 N |  | 4.02 µM | 
10 | CCCCCCCCCCCCCCOc1ccc(C(=O)O)o1 [TOFA] |  | loss of these distinct puncta and dispersion of dsRNA and SARS-CoV-2 N |  | 1.34 µM | 
11 | Nc1ncc(-c2ccnc(Nc3ccncc3)n2)c(CC2CC2)n1 [PIK-III] | 0.12 µM |  |  |  | toxicity at the remaining concentrations (resistance 1-20 hpi) (Vero E6 cells): no toxicity was observed
12 | CCC/C=C/C/C=C/C=C/C=N/NN=O [triacsin C] | 0.04 µM | fewer but larger foci positive for both markers | reduced RNA levels at both MOI 0.01 and 1 |  | 
